Results published in patent US20050085539A1, “Method of reducing toxicity of retinoids” (priority 2003, published 2005).

What was measured:
Type in all cases: in vivo, rat
vitamin A-deficient rats [1] = assay: Growth of vitamin A-deficient rats given the compounds orally in Wesson oil; conditions: for growth (weight change) of vitamin A-deficient rats: 83 pmoles/day oral in Wesson oil; for growth (weight change) of vitamin A-deficient rats / growth response of vitamin A-deficient rats: 5-day period; for activity relative to atRA in supporting growth of vitamin A-deficient rats: estimate from FIG. 4, 83 pmole/day, 5 days; for growth response of vitamin A-deficient rats: 166 pmoles/day oral in Wesson oil
Excerpt: The first test was to determine if the esterified compounds when given orally could restore normal growth of vitamin A-deficient rats. For this study, Sprague-Dawley, weanling rats were obtained from Harlan (Indianapolis, Ind.). They were fed the purified vitamin A-deficient diet previously described (Suda et al., 1970, J. Nutr. 100:1049-1052) supplemented with vitamins D, E and K (White et al., 1998, Proc. Natl. Acad. Sci. USA 95:13459-13464). When the animals stopped growing and began to lose weight, they were administered the indicated doses per day dissolved in Wesson oil. Controls were given the Wesson oil alone (vehicle group). The weight change over the 5-day study period was analyzed by ANOVA, followed by a matrix of pairwise comparison probabilities using four post-hoc tests when the overall P value was less then 0.05. The post-hoc comparison tests included: Turkey HSD multiple comparisons, Sheffe test, Fisher's least-significant-difference test and the Bonferroni adjustment test.
Weanling male rats were obtained from the Harlan Company and were housed individually in hanging wire cages and fed the vitamin A-deficient diet described previously (Suda et al., 1970, J. Nutr. 100:1049-1052). At approximately 70 days of age, the animals began to show a leveling off of growth and began to show weight loss. At this time, they were used for the following studies: They were given either 0.1 ml of Wesson oil (vehicle) or the indicated dose of atRA dissolved in the vehicle or one of the derivatives at the indicated dose dissolved in the vehicle. Body weights were recorded daily and plotted as cumulative weight gain or loss over the study period as indicated on the graphs. A daily dose of 83 pmoles (25 μg/day) of atRA is near the minimum amount needed to produce normal growth in […] rats as compared to the vehicle controls that continue to lose weight (FIG. 1). […] When the dose was increased to 50 μg/day of atRA or 59.5 μg/day of the t-butyl derivative, as expected, the growth response was identical.

normal male rats = assay: Acute toxicity of atRA versus t-butyl-RA in normal male rats
Experimental: Two independent toxicity studies were carried out with the t-butyl-RA derivative. […] However, the difference in testes weights between the atRA and t-butyl-RA groups was not statistically significant due to rather large biological variability.
We next examined the actute toxicity of the t-butyl derivative as compared to the atRA derivative in two independent trails. In these experiments, normal male rats weighing approximately 250-300 grams were used. They were individually housed in cages and given Purina lab chow as well as water ad libitum. […] This is an extremely large dose, and represents at least 3,600 times the amount of the t-butyl derivative needed to support a physiological growth response in vitamin A-deficient rats. […] Another indication of toxicity is testes weight as illustrated in FIG. 7.

vitamin A-deficient rats [2] = assay: Growth of vitamin A-deficient rats given the compounds orally in Wesson oil; conditions: daily oral dose (25 μg/day)
[3] = 1 mmole/kg/day for 5 days, second study (FIG. 6)

| Structure (SMILES) | growth (weight change) of vitamin A-deficient rats (vitamin A-deficient rats [1]) | activity relative to atRA in supporting growth of vitamin A-deficient rats (vitamin A-deficient rats [1]) | growth response of vitamin A-deficient rats (vitamin A-deficient rats [1]) | growth response of vitamin A-deficient rats (vitamin A-deficient rats [1]; listed as t-butyl derivative) | apparent toxicity / outward symptoms (normal male rats; [3]) | body weight change (normal male rats; [3]) | body weight change (normal male rats; 1 mmole/kg/day, 7 days, first study (FIG. 5)) | daily dose near the minimum amount needed to produce normal growth (vitamin A-deficient rats [2]) [nmol] |
| --- | --- | --- | --- | --- | --- | --- | --- | --- |
| CC1=C(/C=C/C(C)=C/C=C/C(C)=C/C(=O)O[C@H]2CC[C@@]3(C)C(=CCC4C3CC[C@@]3(C)C4CC[C@@H]3[C@H](C)CCCC(C)C)C2)C(C)(C)CCC1 (stereo partly drawn) [cholesterol ester, all-trans-retinoic acid cholesterol ester] | significantly enhanced growth compared to vehicle control animals | one-third | – | – | – | – | – | – |
| CC1=C(/C=C/C(C)=C/C=C/C(C)=C/C(=O)OC(C)(C)C)C(C)(C)CCC1 [t-butyl-RA, all-trans-retinoic acid tert-butyl ester] | did not differ significantly from that of the group fed an equal molar amount of atRA | equal to atRA in potency and efficacy | equivalent | identical | no apparent toxicity | equal body weight accumulation | enabled continued growth | – |
| CC1=C(/C=C/C(C)=C/C=C/C(C)=C/C(=O)O)C(C)(C)CCC1 [atRA, all-trans-retinoic acid, reference compound] | superior to that of the cholesterol ester-fed group | – | – | – | – | – | – | ~83 |
